Laboratory results from patent publication US20020192161A1, “Animal model for evaluating analgesics” (priority 2001, published 2002).
Like-named read-outs stand apart in the source and are kept apart here.

What was measured:
[1] = cited from earlier work; for area under serum drug concentration AUC0-2h: 200 mg dose; for AUC0-2h: 600 mg dose
[2] = Bioavailability of oral ibuprofen formulations in vagal-suppressed (propantheline-treated, Pain Model) rats; assay type: in vivo; conditions: male, Sprague-Dawley, rat, plasma, 20 mg/kg
Method: (§1) The animal models are Adult male Sprague-Dawley rats with body weight of 250-300 g, and which were cared for in accordance with the principles and guidelines of the Canadian Council of Animal Care. All rats were catheterized in the right jugular vein for sample collection.
An animal model having suppressed vagal properties were produced by administering (intraperitoneal injection) to the rats two 20 mg/kg doses of propantheline (test, n=6), an anticholinergic agent with known vagal suppressive properties, the first dose at 2 hours prior to administration of an NSAID, and the second at 1 hour prior.
(§2) The tablets were crushed gently and small pieces were administered into the stomach via a plastic tube followed by 0.5 mL tap water. […] They had free access to water.

[3] = cited from earlier work
[4] = Bioavailability of oral ibuprofen crushed tablets in control rats; assay type: in vivo, Sprague-Dawley rats
Method: as §1, §2

[5] = male, Sprague-Dawley, rat, plasma, po, 20 mg/kg

Cmax [2] [ng/mL]	Tmax [2] [min]	AUC (0-8) ([4]; control rats, 20 mg/kg ibuprofen oral as crushed tablets) [μg/h/mL^−1]	Cmax [4, 5] [ng/mL]	Tmax [4, 5] [min]	Compound	area under serum drug concentration AUC0-2h ([1]; before dental extraction) [mg/L^−1/h]	AUC0-2h ([1]; after dental extraction) [ng·h/mL]	AUC0-2h ([1]; before dental extraction) [ng·h/mL]	delay in the mean time to peak concentration caused by surgery ([1]; 200 mg and 600 mg doses, dental surgery)	solubility in water [3]
–	–	–	–	–	CC(C)Cc1ccc([C@@H](C)C(=O)O)cc1 [R-ibuprofen, R(−)-2-(4-isobutylphenyl)propionic acid]	5.5	5800	14400	–	–
–	–	–	–	–	CC(C)Cc1ccc([C@H](C)C(=O)O)cc1 [S-ibuprofen, S(+)-2-(4-isobutylphenyl)propionic acid]	5.6	7200	14200	–	–
13800	45	139	40400	16.8	CC(C)Cc1ccc(C(C)C(=O)O)cc1 (racemic) [ibuprofen, (±)-2-(4-Isobutylphenyl)propionic acid]	–	–	–	two	less than 1 part of drug in 10,000 parts o
